Test results: publication PMC5150241, “Antimicrobial mechanism of theaflavins: They target 1-deoxy-D-xylulose 5-phosphate reductoisomerase, the key enzyme of the MEP terpenoid biosynthetic pathway” (Scientific Reports, 2016)
Read-outs that look alike come from different tables or passages of the source.

Assays:
[1] = Stability of the theaflavins under the DXR assay conditions (HPLC); type: physicochemical; conditions: 100 μM before incubation, 50 mM Tris-HCl pH 7.4, 37 °C, 35 min; for Concentration after incubation in the absence of 2 mM VC: no VC
Experimental: The theaflavins are unstable compounds, especially under a basic condition. Because the DXR inhibition assay needs to be carried out in 50 mM Tris-HCl buffer at pH 7.4 and incubated at 37 °C for 30 min, we have to test whether the theaflavins can survive the assay condition, although it is almost neutral. The compounds were actually incubated at 37 °C for 35 min, 5 min longer than that of the real DXR assay. The results, as depicted in Table 1, indicate that almost half of the theaflavins decomposed after incubation. That is to say that these compounds are unstable even under the weak basic condition. […] Thus VC (2 mM) was used to protect the theaflavins in the following assays.
Stability of the theaflavins in Tris-HCl buffer was evaluated using an Agilent 1200 HPLC equipped with a DAD detector. The theaflavins were separately diluted into 50 mM Tris-HCl buffer (pH 7.4) containing 5 mM MgCl2 and 2% (W/V) DMSO to a final concentration of 100 μM in the absence and presence of 2 mM VC. The mixtures were subsequently incubated at 37 °C for 35 min before they were centrifuged at 6000 rpm for 3 min and analyzed. HPLC conditions: Column, Shim-pack VP-ODS column (250 × 4.6 mm, 4.6 μm). Detection wavelength: 280 nm. Injection volume: 20 μL. The mobile phase consists of 60% solvent A [2% acetic acid in water (v/v)] and 40% solvent B (acetonitrile). Flow rate: 0.7 mL/min. Column temperature: 25 °C. […]
1. Stability of the theaflavins under the DXR assay conditions
In order to evaluate the stability of the theaflavins under the DXR assay conditions, each compound was diluted into 50 mM Tris-HCl buffer (pH 7.4) and incubated at 37 °C for 35 min in the absence and presence of 2 mM VC before they were determined by HPLC. The HPLC profiles were listed in Fig. S1. From the figure we are able to see that in the presence of 2 mM VC, the four theaflavin compounds are stable because the peak area of each compound remains almost unchanged after incubation (B). But they are unstable in the absence of VC because the peak areas of all four […]
(1 picture or pasted object on this page, not shown here)
Figure S1. The stabilitiy of the theaflavin compounds under DXR assay conditions. A. Mixtures of VC and individual theaflavins in 50 mM Tris-HCl buffer (pH 7.4) before incubation; B. Mixtures of VC and individual theaflavins in same buffer after incubated at 37 °C for 35 min; C. Individual theaflavins in same buffer after incubated at 37 °C for 35 min. In A and B. Line 1, TF (100 μM) plus VC (2 mM); Line 2, TF3G (100μM) plus VC (2 mM); Line 3, TF3’G (100μM) plus VC (2 mM); Line 4, TF3,3’G (100μM) plus VC (2 mM). In C. Line 1, TF (100 μM); Line 2, TF3G (100μM); Line 3, TF3’G (100μM); Line 4, TF3,3’G (100μM). HPLC conditions:
Column, Shim-pack VP-ODS column (250 × 4.6 mm, 4.6μm). Detection wavelength: 280 nm. The mobile phase consisted of 60% solvent A [2% acetic acid in water (v/v)] and 40% solvent B (acetonitrile). Flow rate:
0.7 mL/min. Column temperature: 25 °C. […]

[2] = molecular target: T1, E. coli DXR (Escherichia coli, UniProt P45568); assay: DXR inhibition assay, pre-column derivatization HPLC method; type: biochemical; conditions: for Inhibition (%) Triton, lower concentration / Inhibition (%) Triton, higher concentration: 0.01% Triton X-100; for Inhibition (%) Triton, lower concentration / Inhibition (%) No Triton, lower concentration: conc: TF 150, TF3G 30, TF3′G 20, TF3,3′G 15, baicalein 50 μM; for Inhibition (%) Triton, higher concentration / Inhibition (%) No Triton, higher concentration: conc: TF 250, TF3G 50, TF3′G 40, TF3,3′G 30, baicalein 100 μM; for IC50: 2 mM VC, 0.5 mM NADPH, 1 mM DXP, 37 °C, 30 min, read-out: IC50 against DXR; for Inhibition (%) No Triton, lower concentration / Inhibition (%) No Triton, higher concentration: no Triton X-100
T1 construct: made in house
T1 sequence (P45568 whole entry): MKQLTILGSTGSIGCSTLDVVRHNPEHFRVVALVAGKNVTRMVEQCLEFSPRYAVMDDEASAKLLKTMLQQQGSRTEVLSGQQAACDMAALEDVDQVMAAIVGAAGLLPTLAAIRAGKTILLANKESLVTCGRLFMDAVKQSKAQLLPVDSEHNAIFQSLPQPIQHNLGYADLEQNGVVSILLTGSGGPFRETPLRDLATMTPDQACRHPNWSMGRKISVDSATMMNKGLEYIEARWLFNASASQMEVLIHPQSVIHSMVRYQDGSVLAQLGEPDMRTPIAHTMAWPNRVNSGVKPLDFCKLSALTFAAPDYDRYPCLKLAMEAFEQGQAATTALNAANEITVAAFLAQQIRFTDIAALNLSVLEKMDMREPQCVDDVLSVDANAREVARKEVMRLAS
Experimental: Then, we evaluated the DXR inhibitory activity of all four theaflavins at a final concentration of approximately 150 μM, employing 2% DMSO as a co-solvent and VC as a protective agent. […] Encouraged by these experiments, we further determined the DXR inhibitory effects of the theaflavins at different concentrations.
We therefore determined the DXR inhibitory activity of the theaflavins using 0.01% Triton X-100 as a surfactant to verify whether the theaflavins were aggregating inhibitors of DXR. Exactly the same procedure as described in the experimental part was followed to carry out the measurements. […] Then, we set two distinct concentrations for each of the theaflavins to evaluate its inhibition against DXR, one was close to its IC50 value and the other was about twice of it.
The inhibitory activity of the theaflavins and baicalein against E. coli DXR was determined using the pre-column derivatization HPLC method published by this group with minor modifications[29]. The assay mixture consists of 50 mM Tris-HCl (pH 7.4), 5 mM MgCl2, 2 mM VC, 0.5 mM NADPH, 2% (W/V) DMSO or 0.01% Triton X-100, and 4 μg/mL DXR in a final volume of 100 μL. The theaflavin compounds or baicalein were added to the mixtures separately before the addition of DXP (final conc. 1 mM) to start the reaction. […] The reaction mixture was incubated at 37 °C for 30 min before the DXR was inactivated by boiling for 3 minutes. Subsequently, 10 μL AP buffer (1 M Tris-HCl, 1 M NaCl2 50 mM MgCl2, pH 9.5) and 2 U AP were added, and the mixture was incubated at 37 °C for 120 min. 10 μL DNPH (120 mM in 30% perchloric acid, V/V) and 280 μL methanol were supplemented. After incubated at 37 °C for another 45 min, the mixture was centrifuged at 6000 rpm for 3 min and the supernatant was used for HPLC analysis on the Agilent 1200 HPLC system. HPLC conditions: Column, Shim-pack VP-ODS column (250 × 4.6 mm, 4.6 μm). Injection volume: 60 μL. Gradient: 0 min, 40% acetonitrile; 17 min, 80% acetonitrile; 18–20 min, 40% acetonitrile. Detection wavelength: 360 nm. Flow rate: 0.7 mL/min. Column temperature: 30 °C.

[3] = molecular target: T1, E. coli DXR; assay: Inhibition kinetics against DXR (Lineweaver-Burk plots); type: biochemical; conditions: for Ki: 2 μg/mL DXR; for Kinetics (DXP): inhibition mode with respect to DXP; for Kinetics (NADPH): inhibition mode with respect to NADPH
Experimental: Lineweaver-Burk (LB) graphical charts were obtained by plotting the reciprocal of the reaction velocity against the reciprocal of the concentration of DXP/NADPH.
For A, the mixtures contained 1 mM DXP and NADPH (final conc. 0.05 to 0.275 mM); For B, the mixtures contained 0.5 mM NADPH and DXP (final conc. 0.075 to 0.3375 mM). The incubation was performed for 10 min at 37 °C before the reaction mixtures were hydrolyzed with AP, derivatized with DNPH, and analyzed using the HPLC method.
Lineweaver–Burk plots of DXR with respect to NADPH in the absence and presence of TF (A-1),
Assay mixtures comprised 50 mM tris-HCl (pH 7.4), 5 mM
MgCl2, 2 mM VC, the theaflavins (TF: 0, 2, 10, 20 μM; the other three compounds: 0, 1, 4, or 8 μM), 1 mM DXP and 2 μg/mL DXR in a final volume of 100 μL. Then, NADPH (final conc. 0.05 to 0.275 mM) was added, and incubation was performed for 10 min at 37 °C before the reaction mixtures were hydrolyzed with AP, derivatized with DNPH, and analyzed using the HPLC method. (A-1) DXR inhibition kinetics of TF; (A-2) DXR inhibition kinetics of TF3G; (A-3) DXR inhibition kinetics of TF3’G; (A-4) DXR inhibition kinetics of
Lineweaver–Burk plots of DXR with respect to DXP in the absence and presence of TF (B-1),
MgCl2, 2 mM VC, the theaflavins (TF: 0, 5, 10, 20 μM; the other three compounds: 0, 1, 4, or 8 μM), 0.5 mM NADPH, and 2 μg/mL. DXR in a final volume of 100 μL. Then, DXP (final conc. 0.075 to 0.3375 mM) was added, and incubation proceeded for 10 min at 37 °C before the reaction mixtures were hydrolyzed with AP, derivatized with DNPH, and analyzed using the HPLC method. (B-1) DXR inhibition kinetics of TF; (B-2) DXR inhibition kinetics of TF3G; (B-3) DXR inhibition kinetics of TF3’G; (B-4) DXR inhibition kinetics of

[4] = Particle size analysis by dynamic light scattering (DLS); type: physicochemical; conditions: 50 mM Tris-HCl pH 7.4, 2 mM VC, 2% DMSO; for DLS Count Rate, with 4 μg/mL DXR / DLS Count Rate, without DXR: conc: TF 500, TF3G 100, TF3′G 100, TF3,3′G 70, baicalein 200 μM
Experimental: DLS is a widely utilized technique in materials science to measure particle sizes in solutions[20][21]. […] Baicalein was referenced as a positive control owing to the same reason as mentioned above. The particle size evaluation was performed by a DLS analyzer and the results display that except for baicalein, the theaflavins produce no detectable particles.
The particle size of the theaflavin compounds and baicalein in Tris-HCl buffer (50 mM, pH 7.4) containing 2 mM VC and 2.0% DMSO (V/V) was measured in the absence and presence of DXR (final concentration: 4 μg/mL) on a DLS analyzer (NICOMP-380, Particle Sizing Systems, Inc., Santa Barbara, Calif., USA). The detector time was set to 10 min. […] A solution of 2.0% aqueous DMSO was used as a reference.

[5] = molecular target: T2, Calf intestine AP (Bos taurus, UniProt P19111); assay: Alkaline phosphatase (AP) inhibition assay, HPLC method; type: biochemical; conditions: 2 mM
T2 construct: purchased Takara (Dalian, China)
T2 sequence (P19111 20-533): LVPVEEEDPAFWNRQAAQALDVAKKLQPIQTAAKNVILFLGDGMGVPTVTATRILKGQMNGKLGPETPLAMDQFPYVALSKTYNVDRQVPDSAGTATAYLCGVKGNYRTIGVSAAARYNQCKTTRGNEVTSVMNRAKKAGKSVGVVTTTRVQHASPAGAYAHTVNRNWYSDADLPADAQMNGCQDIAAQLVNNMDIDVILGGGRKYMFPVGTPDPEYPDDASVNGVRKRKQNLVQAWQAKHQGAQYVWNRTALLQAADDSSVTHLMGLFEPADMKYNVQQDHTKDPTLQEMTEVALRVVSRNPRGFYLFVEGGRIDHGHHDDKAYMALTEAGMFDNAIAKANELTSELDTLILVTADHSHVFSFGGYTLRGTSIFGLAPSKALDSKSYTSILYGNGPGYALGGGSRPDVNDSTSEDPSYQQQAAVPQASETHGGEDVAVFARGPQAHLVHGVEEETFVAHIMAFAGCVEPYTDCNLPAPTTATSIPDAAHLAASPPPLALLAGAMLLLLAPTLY
Experimental: The other factor that could influence the determination of inhibitory activity of the theaflavins against DXR would be the AP because we must use it to dephosphorylate DXP before DNPH derivatization. We thus measured whether VC and the theaflavins might display any inhibition against this enzyme. We find that VC has no effect on the activity of AP at 2 mM and the four theaflavins also have no inhibition against AP at all (Fig. 4), even at final concentrations as high as 500 μM.
Figure 4 Determination of inhibition of VC and the theaflavins against AP. The reaction mixtures comprise 10 μL AP buffer and 2 U AP in a final volume of 100 μL, DXP was added (final conc. 1 mM) to start the reaction. The reaction mixtures were incubated at 37 °C for 120 min and subsequently derivatized with DNPH and analyzed with the HPLC method. For VC assay, 2 mM VC was added before the addition of DXP. For assays of the theaflavins, the compounds were added separately before the addition of DXP (two concentrations, 20 and 500 μM for each compound were applied).
The HPLC method described above was also used to determine the inhibitory activity of the theaflavins against AP. The reaction mixture comprises 2 mM VC, 10 μL AP buffer and 2 U AP in a final volume of 100 μL. […] Then, the reaction mixture was derivatized with DNPH and analyzed with the HPLC method.

[6] = tested on: Plasmodium falciparum; conditions: malaria caused by Plasmodium falciparum; cited from earlier work
[7] = design: method as in earlier work; conditions: cited from earlier work
[8] = DXP as varied substrate, 0.5 mM NADPH, read-out: Ki (DXP)
[9] = NADPH as varied substrate, 1 mM DXP, read-out: Ki (NADPH)

Row | Compound | Concentration after incubation in the presence of 2 mM VC [1] | Concentration after incubation in the absence of 2 mM VC [1] | Inhibition (%) Triton, lower concentration [2] | Inhibition (%) Triton, higher concentration [2] | IC50 ([2]; 2% DMSO) | Inhibition (%) No Triton, lower concentration [2] | Inhibition (%) No Triton, higher concentration [2] | Ki [3, 8] | Ki [3, 9] | Kinetics (DXP) [3] | Kinetics (NADPH) [3] | DLS Count Rate, with 4 μg/mL DXR ([4]; 4 μg/mL DXR) | DLS Count Rate, without DXR [4] | also measured
1 | O=C(O[C@@H]1Cc2c(O)cc(O)cc2O[C@@H]1c1cc(O)c(O)c2c(=O)c(O)cc([C@H]3Oc4cc(O)cc(O)c4C[C@H]3O)cc12)c1cc(O)c(O)c(O)c1 [TF3G] | 98.15 ± 2.86 µM | 60.88 ± 2.77 µM | 52.7 ± 2.4% | 67.9 ± 3.4% | 29.2 ± 2.6 µM | 52.6 ± 3.2% | 69.6 ± 2.7% | 30.2 ± 2.6 µM | 24.7 ± 3.2 µM | Noncompetitive | Uncompetitive | 4.6 ± 0.5 KHz | 2.6 ± 0.5 KHz | –
2 | O=C1O[C@H]([C@@H](O)CO)C(O)=C1O [VC, ascorbic acid] | – | – | – | – | – | – | – | – | – | – | – | – | – | Effect on the activity of DXR ([2]; 2 mM): no effect; Effect on the activity of AP [5]: no effect
3 | O=c1cc(-c2ccccc2)oc2cc(O)c(O)c(O)c12 [Baicalein, baicalein, reference compound] | – | – | – | – | – | – | – | – | – | – | – | 296 ± 19.7 KHz | 2.6 ± 0.5 KHz | inhibition at 100 µM ([2]; read-out: Inhibition (%) No Triton, higher concentration): 63.5 ± 2.9%; inhibition at 50 µM ([2]; read-out: Inhibition (%) No Triton, lower concentration): 37.6 ± 4.7%; inhibition at 100 µM ([2]; read-out: Inhibition (%) Triton, higher concentration): 6.5 ± 4.6%; inhibition at 50 µM ([2]; read-out: Inhibition (%) Triton, lower concentration): 5.1 ± 3.9%; DLS Size, with 4 μg/mL DXR ([4]; 4 μg/mL DXR, baicalein 200 μM): 429.2 ± 84.7 nm
4 | O=CN(O)CCCP(=O)(O)O [Fosmidomycin, fosmidomycin] | – | – | – | – | – | – | – | – | – | – | – | – | – | Efficacy in treating malaria (clinical data) [6]: somewhat effective; Inhibition of DXR activity (positive control) ([2]; 1.0 μM): complete inhibition; Bioavailability [7]: poor; Plasma half-life [7]: ~ 1 h
5 | Triton X-100 | – | – | – | – | – | – | – | – | – | – | – | – | – | Effect on the activity of DXR ([2]; 0.1%): no effect
6 | O=c1c(O)cc([C@H]2Oc3cc(O)cc(O)c3C[C@H]2O)cc2c([C@H]3Oc4cc(O)cc(O)c4C[C@H]3O)cc(O)c(O)c12 [TF, theaflavin] | 98.97 ± 3.27 µM | 63.01 ± 3.73 µM | 43.9 ± 3.6% | 62.2 ± 2.9% | 162 ± 3.6 µM | 45.3 ± 3.4% | 63.1 ± 2.4% | 107 ± 3.9 µM | 83.1 ± 4.3 µM | Noncompetitive | Uncompetitive | 5.8 ± 0.4 KHz | 2.2 ± 0.4 KHz | Inhibition against DXR at a single concentration ([2]; approximately 150 μM, 2% DMSO, VC): approximately 40%
7 | O=C(O[C@@H]1Cc2c(O)cc(O)cc2O[C@@H]1c1cc(O)c(=O)c2c(O)c(O)cc([C@H]3Oc4cc(O)cc(O)c4C[C@H]3OC(=O)c3cc(O)c(O)c(O)c3)c2c1)c1cc(O)c(O)c(O)c1 [TF3,3′G, theaflavin-3,3′-digallate] | 96.72 ± 2.78 µM | 55.26 ± 4.32 µM | – | – | – | – | – | – | – | – | – | 4.8 ± 0.4 KHz | 2.2 ± 0.4 KHz | –
8 | O=C(O[C@@H]1Cc2c(O)cc(O)cc2O[C@@H]1c1cc(O)c(=O)c2c(O)c(O)cc([C@H]3Oc4cc(O)cc(O)c4C[C@H]3O)c2c1)c1cc(O)c(O)c(O)c1 [TF3′G, theaflavin-3′-gallate] | 98.08 ± 3.02 µM | 61.17 ± 4.29 µM | 42.5 ± 3.3% | 70.7 ± 3.3% | 23.7 ± 2.9 µM | 41.3 ± 2.9% | 70.3 ± 3.4% | 22.2 ± 3.1 µM | 22.4 ± 2.1 µM | Noncompetitive | Uncompetitive | 5.2 ± 0.4 KHz | 1.4 ± 0.5 KHz | –
